Data as given in PubChem BioAssay AID1963439 (Molecular Pharmacology Branch, DTP, NCI, 2024).

Tested on: NCI-H196 complex spheroids with HUVEC/MSC, growth % T/C
Test: Anticancer human tumor NCI-H196 cell line growth inhibition [Asc];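 also: spheroids exposed to compound for 7 days before measurement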;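 as to viability, T/C: 100% = DMSO vehicle control wells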
Conditions: for IC50: curve of first compound; for viability, T/C: stronger effect = lower value
How it was run: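 Stromal components (HUVEC and hMSC) are co-assembled with the cancer cells into multicellular spheroids. Drugs are then added singly or paired, at concentrations falling by half-log increments from a clinically achievable maximum, capped at 10 microM without known Cmax.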

[1] = second compound 0.1 µM, first compound 0.00316 µM
[2] = second compound 0.1 µM, first compound 0.01 µM
[3] = second compound 0.1 µM, first compound 0.0316 µM
[4] = second compound 0.1 µM, first compound 0.1 µM
[5] = second compound 0.1 µM, first compound 0.316 µM
[6] = second compound 0.1 µM, first compound 1 µM
[7] = second compound 0.316 µM, first compound 0.00316 µM
[8] = second compound 0.316 µM, first compound 0.01 µM
[9] = second compound 0.316 µM, first compound 0.0316 µM
[10] = second compound 0.316 µM, first compound 0.1 µM
[11] = second compound 0.316 µM, first compound 0.316 µM
[12] = second compound 0.316 µM, first compound 1 µM
[13] = second compound 1 µM, first compound 0.00316 µM
[14] = second compound 1 µM, first compound 0.01 µM
[15] = second compound 1 µM, first compound 0.0316 µM
[16] = second compound 1 µM, first compound 0.1 µM
[17] = second compound 1 µM, first compound 0.316 µM
[18] = second compound 1 µM, first compound 1 µM
[19] = second compound 3.16 µM, first compound 0.00316 µM
[20] = second compound 3.16 µM, first compound 0.01 µM
[21] = second compound 3.16 µM, first compound 0.0316 µM
[22] = second compound 3.16 µM, first compound 0.1 µM
[23] = second compound 3.16 µM, first compound 0.316 µM
[24] = second compound 3.16 µM, first compound 1 µM
[25] = second compound 10 µM, first compound 0.00316 µM
[26] = second compound 10 µM, first compound 0.01 µM
[27] = second compound 10 µM, first compound 0.0316 µM
[28] = second compound 10 µM, first compound 0.1 µM
[29] = second compound 10 µM, first compound 0.316 µM
[30] = second compound 10 µM, first compound 1 µM

Row | SMILES | IC50 (second compound 0.1 µM) [nM] | IC50 (second compound 0.316 µM) [nM] | IC50 (second compound 1 µM) [nM] | IC50 (second compound 3.16 µM) [nM] | IC50 (second compound 10 µM) [nM] | viability, T/C [1] [%] | viability, T/C [2] [%] | viability, T/C [3] [%] | viability, T/C [4] [%] | viability, T/C [5] [%] | viability, T/C [6] [%] | viability, T/C [7] [%] | viability, T/C [9] [%] | viability, T/C [10] [%] | viability, T/C [15] [%] | viability, T/C [16] [%] | viability, T/C [21] [%] | viability, T/C [22] [%] | viability, T/C [27] [%] | viability, T/C [28] [%] | further results
1 | CCN1CCN(Cc2ccc(Nc3ncc(F)c(-c4cc(F)c5nc(C)n(C(C)C)c5c4)n3)nc2)CC1 + Cc1c(S(C)(=O)=O)c(-c2cc(F)cc(N3CCN(c4ccc(NS(=O)(=O)c5ccc(NC(CCN6CCC(C(=O)OCCCP(=O)(O)O)CC6)CSc6ccccc6)c(S(=O)(=O)C(F)(F)F)c5)cc4)CC3)c2)c(-c2ccc(Cl)cc2)n1C(C)C | > 1000 | > 1000 | > 1000 | > 1000 | > 1000 | 101 | 95.4 | 101 | 104 | 102 | 109 | 94.1 | 92.6 | 104 | 92.2 | 102 | 80.1 | 85.3 | 81.4 | 83.6 | viability, T/C [8]: 102%; viability, T/C [11]: 104%; viability, T/C [12]: 113%; viability, T/C [13]: 92.2%; viability, T/C [14]: 91.7%; viability, T/C [17]: 104%; viability, T/C [18]: 105%; viability, T/C [19]: 90.2%; viability, T/C [20]: 88.8%; viability, T/C [23]: 93.1%; viability, T/C [24]: 86%; viability, T/C [25]: 77.2%; viability, T/C [26]: 76.2%; viability, T/C [29]: 86.2%; viability, T/C [30]: 80.8%
2 | Cn1ncnc1[C@H]1c2n[nH]c(=O)c3cc(F)cc(c23)N[C@@H]1c1ccc(F)cc1 + Cc1c(S(C)(=O)=O)c(-c2cc(F)cc(N3CCN(c4ccc(NS(=O)(=O)c5ccc(NC(CCN6CCC(C(=O)OCCCP(=O)(O)O)CC6)CSc6ccccc6)c(S(=O)(=O)C(F)(F)F)c5)cc4)CC3)c2)c(-c2ccc(Cl)cc2)n1C(C)C | > 100 | > 100 | > 100 | > 100 | > 100 | 102 | 101 | 94.8 | 98.4 | – | – | 107 | 89 | 93.4 | 86.2 | 94 | 80.1 | 80.1 | 62.8 | 66.8 | viability, T/C (second compound 0.1 µM, first compound 0.000316 µM): 107%; viability, T/C (second compound 0.1 µM, first compound 0.001 µM): 101%; viability, T/C (second compound 0.316 µM, first compound 0.000316 µM): 102%; viability, T/C (second compound 0.316 µM, first compound 0.001 µM): 105%; viability, T/C [8]: 95.2%; viability, T/C (second compound 1 µM, first compound 0.000316 µM): 97%; viability, T/C (second compound 1 µM, first compound 0.001 µM): 94.9%; viability, T/C [13]: 94.5%; viability, T/C [14]: 95.7%; viability, T/C (second compound 3.16 µM, first compound 0.000316 µM): 93.1%; viability, T/C (second compound 3.16 µM, first compound 0.001 µM): 84.4%; viability, T/C [19]: 78.5%; viability, T/C [20]: 79.1%; viability, T/C (second compound 10 µM, first compound 0.000316 µM): 77.2%; viability, T/C (second compound 10 µM, first compound 0.001 µM): 85%; viability, T/C [25]: 78.7%; viability, T/C [26]: 73.9%
3 | O=C(c1cc(Cc2n[nH]c(=O)c3ccccc23)ccc1F)N1CCN(C(=O)C2CC2)CC1 + Cc1c(S(C)(=O)=O)c(-c2cc(F)cc(N3CCN(c4ccc(NS(=O)(=O)c5ccc(NC(CCN6CCC(C(=O)OCCCP(=O)(O)O)CC6)CSc6ccccc6)c(S(=O)(=O)C(F)(F)F)c5)cc4)CC3)c2)c(-c2ccc(Cl)cc2)n1C(C)C | > 10000 | > 10000 | > 10000 | > 10000 | > 10000 | – | – | 98 | 93.4 | 85.8 | 95.6 | – | 88.8 | 102 | 91.4 | 96.9 | 89.9 | 83.6 | 73.2 | 74.9 | viability, T/C (second compound 0.1 µM, first compound 3.16 µM): 99.8%; viability, T/C (second compound 0.1 µM, first compound 10 µM): 89.5%; viability, T/C [11]: 103%; viability, T/C [12]: 88.3%; viability, T/C (second compound 0.316 µM, first compound 3.16 µM): 94.3%; viability, T/C (second compound 0.316 µM, first compound 10 µM): 87.1%; viability, T/C [17]: 88.2%; viability, T/C [18]: 89%; viability, T/C (second compound 1 µM, first compound 3.16 µM): 83.5%; viability, T/C (second compound 1 µM, first compound 10 µM): 81.2%; viability, T/C [23]: 84.5%; viability, T/C [24]: 86%; viability, T/C (second compound 3.16 µM, first compound 3.16 µM): 78.3%; viability, T/C (second compound 3.16 µM, first compound 10 µM): 66.3%; viability, T/C [29]: 71.6%; viability, T/C [30]: 71.8%; viability, T/C (second compound 10 µM, first compound 3.16 µM): 74%; viability, T/C (second compound 10 µM, first compound 10 µM): 57.9%
4 | O=C(c1ccc(F)c(F)c1Nc1ccc(I)cc1F)N1CC(O)([C@@H]2CCCCN2)C1 + Cc1c(S(C)(=O)=O)c(-c2cc(F)cc(N3CCN(c4ccc(NS(=O)(=O)c5ccc(NC(CCN6CCC(C(=O)OCCCP(=O)(O)O)CC6)CSc6ccccc6)c(S(=O)(=O)C(F)(F)F)c5)cc4)CC3)c2)c(-c2ccc(Cl)cc2)n1C(C)C | > 1000 | > 1000 | > 1000 | > 1000 | > 1000 | 103 | 104 | 108 | 102 | 117 | 125 | 99 | 88.6 | 97.4 | 93.9 | 106 | 87.8 | 85.4 | 81.2 | 83 | viability, T/C [8]: 96.1%; viability, T/C [11]: 105%; viability, T/C [12]: 117%; viability, T/C [13]: 84.9%; viability, T/C [14]: 89.1%; viability, T/C [17]: 108%; viability, T/C [18]: 117%; viability, T/C [19]: 79.8%; viability, T/C [20]: 87.3%; viability, T/C [23]: 102%; viability, T/C [24]: 106%; viability, T/C [25]: 74.5%; viability, T/C [26]: 85.8%; viability, T/C [29]: 90.6%; viability, T/C [30]: 97%
